The record followed here is ChEMBL document CHEMBL1201862, “PubChem BioAssay data set” (2004).

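Values below derive from 48-hour exposures of cells grown in 96-well plates, with endpoints linearly interpolated between the two concentrations bracketing the appropriate inhibition level. GI50: concentration for 50% inhibition of growth.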 The source made the active and inactive calls. Cut-off read from the data, not from the text of the source: active = GI50 up to about 1.1 µM and inactive = higher.

Common to all, as to test: NCI tumour cell line growth inhibition, 48 h
In assay [1] the test system is A498.
In assay [2] the test system is CCRF-CEM.
Assay [3] concerns COLO 205.
Assay [4] deals with HCT-15.
The subject of assay [5] is HOP-62.
In assay [6] the test system is HOP-92.
In assay [7] the test system is HT-29.
In assay [8] the test system is IGROV-1.
Assay [9] has as its system K562.
Assay [10] concerns KM12.
Assay [11] relates to M14.
Assay [12] concerns MOLT-4.
The subject of assay [13] is OVCAR-4.
Assay [14] deals with OVCAR-8.
For assay [15], the system named is RXF 393.
For assay [16], the system named is SK-MEL-28.
The test system of assay [17] is SNB-19.
The subject of assay [18] is UACC-257.
Assay [19] deals with SK-MEL-2.

`O=C(Nc1ccc(Cl)cc1Cl)C(=O)C(C(=O)c1ccncc1)C1OC(=O)c2ccccc21` (stereo not drawn): the GI50 in [1] is > 100 µM (inactive); in [2], > 100 µM (inactive); in assay [3], > 100 µM (inactive); in assay [4] it was more than 100 µM; in assay [5] it was > 100 µM (inactive); in assay [6] it was > 100 µM (inactive). The GI50 in [7], in assay [8], in assay [9], in [10], in assay [11] and in assay [12] was > 100 µM (inactive) throughout. Moreover, the GI50 in assay [13], in assay [14], in assay [15], in assay [16], in assay [17] and in assay [18] was > 100 µM (inactive) in each case.
For the compound `Nc1ccc(C(=O)NN2C(=O)C(Cl)C2c2cccc([N+](=O)[O-])c2)cc1` (stereo not drawn), the GI50 in [1] was 28.5 µM (inactive); in [2], 9.79 µM (inactive); in assay [3] it was 19 µM (inactive); in assay [4], 18.6 µM; in assay [5] it was 24.6 µM (inactive); in assay [6], 21.4 µM (inactive). Moreover, the GI50 is 20.7 µM (inactive) in assay [7]; 14.3 µM (inactive) in assay [8]; 20.8 µM (inactive) in assay [9]; 16.2 µM (inactive) in [10]; 23 µM (inactive) in [11]; 15.1 µM (inactive) in [12]. For the same compound, the GI50 in assay [13] is 16.4 µM (inactive); in [14], 18.1 µM (inactive); in [16], 21 µM (inactive); in assay [19], 16.8 µM (inactive); in [17] it was 17.3 µM (inactive); in [18] it was 23.1 µM (inactive).
In the case of `CCCN(CCC)CCc1cc(C(C)=O)n(S(=O)(=O)c2ccc(C)cc2)c1`, the GI50 was > 100 µM (inactive) in assay [1]; > 100 µM (inactive) in assay [2]; > 100 µM (inactive) in assay [3]; more than 100 µM in [4]; > 100 µM (inactive) in [5]; > 100 µM (inactive) in assay [6]. The GI50 in assay [7] was 45.6 µM (inactive); in assay [8] it was > 100 µM (inactive); in [9], 80.9 µM (inactive); in assay [10], > 100 µM (inactive); in assay [11], 20.3 µM (inactive); in assay [12], > 100 µM (inactive). In addition, the GI50 in [13] is > 100 µM (inactive); in assay [14], > 100 µM (inactive); in assay [16] it was > 100 µM (inactive); in [19] it was > 100 µM (inactive); in assay [17] it was > 100 µM (inactive); in assay [18], 54.6 µM (inactive).
For `COc1c(C(C)C)cc2c3c1OC(=O)[C@@]31CCCC(C)(C)C1CC2` (stereo partly drawn), the GI50 in assay [2] was 18.5 µM (inactive); in assay [3], 17.3 µM (inactive); in assay [4], 55.7 µM; in assay [5], 39.4 µM (inactive); in assay [7] it was 25.5 µM (inactive); in assay [8] it was 23.1 µM (inactive). The GI50 in assay [9] is 20.4 µM (inactive); in assay [11], 33.5 µM (inactive); in assay [12], 25.1 µM (inactive); in assay [14], 17.7 µM (inactive); in assay [15], 17.3 µM (inactive); in assay [16], 27.4 µM (inactive). Further, the GI50 is 28.1 µM (inactive) in assay [19], 5.78 µM (inactive) in [17] and 20.3 µM (inactive) in assay [18].
On to `N#C/C(=C/Sc1ccccc1)C(=O)O`, for which the GI50 in assay [2] was 9.25 µM (inactive); in [3], 20.9 µM (inactive); in assay [4], 21.9 µM; in assay [5], 43.9 µM (inactive); in [6], 57.7 µM (inactive); in assay [7], 24.7 µM (inactive). Further, the GI50 in assay [8] is 17.9 µM (inactive); in assay [9], 43.1 µM (inactive); in assay [10] it was 19.1 µM (inactive); in assay [11], 22 µM (inactive); in assay [12], 14.9 µM (inactive); in assay [13], 40.7 µM (inactive). For the same compound, the GI50 in assay [14] was 17 µM (inactive); in assay [15] it was 14.3 µM (inactive); in assay [16], 24.5 µM (inactive); in assay [19], 24.7 µM (inactive); in [17] it was 56.2 µM (inactive); in [18], 34.4 µM (inactive).
As to `CN1CCN(C2=NCCO2)CC1`, the GI50 in assay [1] was > 100 µM (inactive); in [2], > 100 µM (inactive); in [3] it was > 100 µM (inactive); in [4] it was more than 100 µM; in assay [5] it was > 100 µM (inactive); in assay [7], > 100 µM (inactive). In addition, the GI50 in assay [8], in [9], in assay [10], in assay [11], in [12] and in [13] was > 100 µM (inactive) each time. The GI50 in [14], in assay [15], in assay [16], in assay [19], in assay [17] and in assay [18] was > 100 µM (inactive) in each case.
`N#CC(N)(C(=O)CCC(=O)Nc1cccc(Cl)c1)c1ccc(Cl)cc1` (stereo not drawn): the GI50 in assay [1] was > 100 µM (inactive); in [2] it was > 100 µM (inactive); in [3], > 100 µM (inactive); in assay [4], more than 100 µM; in assay [5], > 100 µM (inactive); in [6], > 100 µM (inactive). Also, the GI50 in assay [7], in assay [8], in assay [9], in assay [10], in assay [11] and in [12] was > 100 µM (inactive) throughout. The GI50 in assay [13], in assay [14], in assay [16], in [19], in assay [17] and in [18] was > 100 µM (inactive) throughout.
Consider `O=C1C(Cl)C(c2ccc([N+](=O)[O-])cc2)N1n1cnc2ccccc2c1=O` (stereo not drawn), for which the GI50 is 17.6 µM (inactive) in assay [2]; > 100 µM (inactive) in assay [3]; more than 100 µM in [4]; 34.5 µM (inactive) in assay [5]; > 100 µM (inactive) in assay [7]; 75.5 µM (inactive) in assay [8]. The GI50 is 36.9 µM (inactive) in assay [9]; 89.9 µM (inactive) in assay [10]; 32.3 µM (inactive) in assay [11]; 49.1 µM (inactive) in [12]; 5.64 µM (inactive) in assay [13]; 19.1 µM (inactive) in assay [14]. Also, the GI50 in assay [15] was 23.6 µM (inactive); in assay [16] it was 24.1 µM (inactive); in assay [19], > 100 µM (inactive); in assay [17] it was 73.3 µM (inactive); in assay [18], > 100 µM (inactive).
For the compound `C[C@]12CCC3[C@@H](CCC45OC4C(=O)CC[C@]35C)C1Cc1cnn(-c3ccc(F)cc3)c1N2` (stereo partly drawn), the GI50 in [2] is 21.3 µM (inactive); in assay [3] it was 40.5 µM (inactive); in [4], 17.5 µM; in assay [5], 29.6 µM (inactive); in assay [7] it was 17.3 µM (inactive); in [9], 20.9 µM (inactive). Also, the GI50 in assay [10] was 25.1 µM (inactive); in assay [11], 48.6 µM (inactive); in assay [12], 22.9 µM (inactive); in [13] it was > 10 µM (inactive); in [14], 29.8 µM (inactive); in [15] it was 27.9 µM (inactive). In addition, the GI50 in assay [16] was 26.6 µM (inactive); in assay [19], 29.9 µM (inactive); in assay [17], 27.2 µM (inactive); in assay [18], 35.9 µM (inactive).
As for `CC(=O)Nc1ccc(C2CC(c3ccc([N+](=O)[O-])cc3)=Nc3ccccc3[S+]2[O-])cc1` (stereo not drawn), the GI50 in assay [2] was 11.4 µM (inactive); in assay [3] it was 21.8 µM (inactive); in assay [4], 20.6 µM; in assay [5] it was 22.1 µM (inactive); in [7] it was 22.6 µM (inactive); in [8], 12.7 µM (inactive). The GI50 in assay [9] is 4.58 µM (inactive); in assay [10], 14.1 µM (inactive); in assay [11], 27.9 µM (inactive); in assay [12], 12.6 µM (inactive); in assay [13], 18.9 µM (inactive); in assay [14], 30.5 µM (inactive). The GI50 was 17.4 µM (inactive) in assay [15]; 19.6 µM (inactive) in assay [16]; 27.4 µM (inactive) in assay [19]; 36.8 µM (inactive) in assay [17]; 28.6 µM (inactive) in assay [18].
As for `CC(C)OCC(O)COc1cc(=O)oc2ccccc12` (stereo not drawn), the GI50 in assay [2] was > 100 µM (inactive); in assay [3], > 100 µM (inactive); in [4], more than 100 µM; in [5], > 100 µM (inactive); in assay [6], > 100 µM (inactive); in assay [7], > 100 µM (inactive). Besides, the GI50 in assay [8], in assay [9], in [10], in [11], in [12] and in assay [13] was > 100 µM (inactive) each time. Also, the GI50 in assay [14], in assay [16], in assay [19], in assay [17] and in [18] was > 100 µM (inactive) each time.
Consider `CC(O)CC(O)(C(F)(F)F)C(F)(F)F` (stereo not drawn), for which the GI50 is > 10 µM (inactive) in [1]; > 10 µM (inactive) in assay [2]; > 10 µM (inactive) in [3]; more than 10 µM in assay [4]; > 10 µM (inactive) in assay [5]; > 10 µM (inactive) in assay [7]. The GI50 in assay [8], in [9], in assay [10], in assay [11], in assay [12] and in assay [13] was > 10 µM (inactive) throughout. Moreover, the GI50 in assay [14], in assay [15], in assay [16], in [19], in assay [17] and in [18] was > 10 µM (inactive) in each case.
